Measurements from publication PMC7397249, “Properly Substituted Cyclic Bis-(2-bromobenzylidene) Compounds Behaved as Dual p300/CARM1 Inhibitors and Induced Apoptosis in Cancer Cells” (Molecules, 2020).

What was measured:
p300 [1] = test: Western blot of acetylation marks (p300 inhibition) in MCF-7 cells; type: cell-based, human; settings: 5 μM, 30 h
Method: (§1) In MCF-7 cells, the levels of acetyl-H3, acetyl-H4, H3K27me3, and H3R17me2 were detected by western blot analyses as functional tests for p300 (acH3 and acH4), EZH2 (H3K27me3) and CARM1 (H3R17me2) inhibition in cells, respectively (Figure 5).
(§2) The procedures were performed as described in [30, 31]. Primary antibodies used were: Ac-H3 (Millipore, Milan, Italy); Ac-H4 (Millipore, Milan, Italy); Ac-H3K9-14 (Diagenode, Ougrée, Belgium); Ac-α-tubulin (Sigma-Aldrich), H3K27me3 (Diagenode); H3R17me2 (Diagenode); EZH2 (Abcam, Cambridge, UK). H3 (Sigma-Aldrich), H4 (Abcam), GAPDH (Sigma) and ERKs (Santa Cruz, Biotechnology, TX, USA) were used to normalize the total protein extracts (see also Supplementary Material).

NB4 cells = test: Cell cycle and apoptosis (sub-G1) analysis by FACS in NB4 cells; type: cell-based, human; settings: 5 μM, 30 h
Method: Compounds 4a–n were tested at 5 μM for 30 h in NB4 […] and U937 AML cells among hematological cancers, and in MCF-7 breast cancer and SH-SY5Y neuroblastoma cells among solid cancers, to determine their effects in cell cycle and apoptosis induction.
In the same cell lines, the induction of apoptosis has been evaluated through the percentage of the sub-G1 peaks.
(§3) For colorimetric exclusion, the cells (2 × 10^5 cells/mL) were plated in multiwells in triplicate. After stimulations at different times and concentrations, cells were diluted in the ratio 1:1 in Trypan Blue (Sigma) and counted with an optical microscope. For cell cycle analyses, cells were plated (2 × 10^5 cells/mL) and were harvested, centrifuged at 1200 rpm for 5 min and resuspended in 500 μL of a hypotonic solution containing 1× PBS, Sodium Citrate 0.1%, 0.1% NP-40, RNAase A and […] Propidium Iodide (PI). After 30 min at room temperature (RT) in the dark, samples were acquired by FACS-Calibur (BD Bioscences, San Jose, CA, USA) using CellQuest software (BD Biosciences). The percentage in different phases of the cell cycle was determined by ModFit LT V3 software (Verity). All experiments were performed in triplicate. Cell death was measured as percentage of cells in sub-G1 phase as in [30].

EZH2 = test: Western blot of H3K27me3 (EZH2 catalytic activity) in NB4 cells; type: cell-based, human; settings: 5 μM, 30 h
Method: (§4) Western blot analyses were carried out on NB4 and MCF-7 cells treated with a subset of compounds 4 (5 μM, 30 h), to confirm that the observed effects are due to modulation of p300, CARM1, and eventually EZH2 activities. Suberoylanilide hydroxamic acid (SAHA), a FDA-approved HDAC inhibitor [28], and GSK-126 [29], a well-known EZH2 inhibitor, were added as internal controls. In NB4 cells, the levels of acetyl-H3 (acH3) and acetyl-H4 (acH4) as well as those of acetyl-H3K9/14 (AcH3K9/14, see Supplementary material) and of the non-histone substrate acetyl-α-tubulin (Ac-Tubulin) were detected as an index of p300 inhibition (Figure 4). In the same cell line, the levels of H3K27me3, histone mark of the EZH2 catalytic activity (Figure 4), as well as the level of the EZH2 expression (see Supplementary material) have been determined. Last, the amount of H3R17me2, the functional read-out of CARM1 inhibition, was determined (Figure 4).
(§5) The procedures were performed as described in [30, 31]. Primary antibodies used were: Ac-H3 (Millipore, Milan, Italy); Ac-H4 (Millipore, Milan, Italy); Ac-H3K9-14 (Diagenode, Ougrée, Belgium); Ac-α-tubulin (Sigma-Aldrich), H3K27me3 (Diagenode); H3R17me2 (Diagenode); EZH2 (Abcam, Cambridge, UK). […]

CARM1 = test: Western blot of H3R17me2 (CARM1) in MCF-7 cells; type: cell-based, human; settings: 5 μM, 30 h
Method: as §1, §2

[2] = Cell viability in non-cancer mesenchymal progenitor cells (differential toxicity); type: cell-based; settings: human, MePR2B cells, control 100%, read-out: percentage of cell viability
Method: After treatment at 5 μM for 30 h, 4l and 4m reduced the percentage of cell viability to 61.2 ± 0.8 and 85.5 ± 3.7, respectively, in comparison with the control (100%).
as §3

p300 [3] = test: Western blot of acetylation marks (p300 inhibition) in NB4 cells; type: cell-based, human; settings: 5 μM, 30 h
Method: as §4, §5

Row | SMILES | levels of acetyl-H4 (p300 [1]) | induction of apoptosis, % sub-G1 peaks (NB4 cells) [%] | further results
1 | O=C1/C(=C/c2ccccc2Br)CN(C(=O)C=Cc2ccccc2)C/C1=C\c1ccccc1Br [Compound 4n, 3,5-Bis((E)-2-bromobenzylidene)-1-cinnamoylpiperidin-4-one] | decrease of the acetylation levels |  | 
2 | O=C1/C(=C/c2ccccc2Br)CN(C(=O)CCc2ccccc2)C/C1=C\c1ccccc1Br [Compound 4m, 3,5-Bis((E)-2-bromobenzylidene)-1-(3-phenylpropanoyl)piperidin-4-one] |  | 56 | levels of H3K27me3 (EZH2): reduction of the H3K27me3 levels; levels of H3R17me2 (CARM1): most effective; viability at 30 h, 5 µM [2]: 85.5 ± 3.7%
3 | O=C1/C(=C/c2ccccc2Br)CN(C(=O)Cc2ccccc2)C/C1=C\c1ccccc1Br [Compound 4l, 3,5-Bis((E)-2-bromobenzylidene)-1-(2-phenylacetyl)piperidin-4-one] | decrease of the acetylation levels | 67 | viability at 30 h, 5 µM [2]: 61.2 ± 0.8%
4 | O=C1/C(=C/c2ccccc2Br)CN(CCc2ccccc2)C/C1=C\c1ccccc1Br [Compound 4f, 3,5-Bis((E)-2-bromobenzylidene)-1-phenethylpiperidin-4-one] |  |  | levels of acetyl-H3 (p300 [3]): less effective
5 | O=C1/C(=C/c2ccccc2Br)CN(Cc2ccccc2)C/C1=C\c1ccccc1Br [Compound 4e, 1-benzyl-3,5-bis((E)-2-bromobenzylidene)piperidin-4-one] | decrease of the acetylation levels | 30 to 40 | 
6 | O=C1/C(=C/c2ccccc2Br)CN(CCCc2ccccc2)C/C1=C\c1ccccc1Br [Compound 4g, 3,5-Bis((E)-2-bromobenzylidene)-1-(3-phenylpropyl)piperidin-4-one] |  |  | levels of acetyl-H3 (p300 [3]): less effective
7 | O=C1/C(=C/c2ccccc2Br)CN(CC(=O)c2ccccc2)C/C1=C\c1ccccc1Br [Compound 4h, 3,5-Bis((E)-2-bromobenzylidene)-1-(2-oxo-2-phenylethyl)piperidin-4-one] |  | 30 to 40 | levels of H3K27me3 (EZH2): reduction of the H3K27me3 levels
8 | O=C1/C(=C/c2ccccc2Br)CN(C(=O)c2ccccc2)C/C1=C\c1ccccc1Br [Compound 4k, 1-Benzoyl-3,5-bis((E)-2-bromobenzylidene)piperidin-4-one] |  | 30 to 40 | levels of acetyl-α-tubulin (p300 [1]): decrease of the acetylation levels
9 | O=C1/C(=C/c2ccccc2Br)CN(CCCC(=O)c2ccccc2)C/C1=C\c1ccccc1Br [Compound 4j, 3,5-Bis((E)-2-bromobenzylidene)-1-(4-oxo-4-phenylbutyl)piperidin-4-one] | decrease of the acetylation levels |  | 
